Patent US5214045A, “Amino acid containing acrylamide derivatives for ulcer prevention or treatment” (Richter Gedeon Vegyeszeti Gyar RT, priority 1989, dated 1993)

What was measured:
gastric acid secretion = assay: Assay of the inhibition of gastric acid secretion by using pylorus ligature; type: in vivo; conditions: female Wistar rats, 4 hours
Description: 2) Assay of the inhibition of gastric acid secretion by using pylorus ligature
[Shay et al., Gastroenterology, 5, 43-61 (1945)]
Before ligating the pylorus, the test compounds suspended with Tween were given orally at a volume of 0.5 ml per […] of body weight to female Wistar rats fasted previously for 20 hours. The animals were sacrificed 4 hours after the operation, and the amount of the acid in the stomach was measured by titration with 0.01N sodium hydroxide solution in the presence of phenolphthalein indicator. The pH value of the content of the stomach was measured by using a pH-meter (Radelkis, Type OP-211/1).

[1] = system: gastric injuries induced by acidic alcohol; assay: Assay of gastric injuries induced by acidic alcohol; type: in vivo; conditions: female rats; for ED50: Rattus norvegicus, po, pretreatment 30 min, length of haemorrhagic lesions
Description: 1) Assay of gastric injuries induced by acidic alcohol
Female rats weighing about 120 to 150 g fasted for 24 hours were used in this test. Test compounds suspended with Tween 80 were given orally to the animals through an intragastric tube. After a certain period (pretreatmenttime) acidic alcohol was given through the intragastric tube at a dose or 0.5 ml per 100 g of body weight. The animals were sacrificed after 1 hour, their stomachs were removed and incised along the great curve. The length of the reddish-brown strips (haemorrhagic lesions) was measured and the mean total length per stomach was calculated. The biological activity of the test compounds was given and compared to that of the control group. the results are shown in Tables 1 and 2 below.

Compound | % Inhibition in the amount of the acid at a dose of 25 mg/kg p.o. (pretreatment: 30 min) (gastric acid secretion) | ED50 [1] | % Inhibition at a dose of 10 mg/kg p.o. (pretreatment: 30 min) [1]
CCOC(=O)C[C@@H](NC(=O)/C=C/[S+]([O-])c1ccccc1)C(=O)OCC (stereo partly drawn) [A, Diethyl N-[3-phenylsulfinyl-2(E)-propenoyl]-(R)-aspartate] | 30% | 2.1 mg/kg | –
CCOC(=O)C[C@@H](NC(=O)/C=C/S(=O)(=O)c1ccccc1)C(=O)OCC [B, Diethyl N-[3-phenylsulfonyl-2(E)-propenoyl]-(R)-aspartate] | – | 3.5 mg/kg | –
O=C(/C=C/S(=O)(=O)c1ccccc1)N1CCN(c2ccccc2)CC1 [C, 1-[3-Phenylsulfonyl-2(E)-propenoyl]-4-phenyl-piperazine] | 20% | – | –
COC(=O)[C@H](CCSC)NC(=O)/C=C/S(=O)(=O)c1ccccc1 [D, Methyl 2(S)-[3-phenylsulfonyl-2(E)-propenoylamino]-4-methylthiobutyrate] | – | 3.5 mg/kg | –
CCOC(=O)C[C@@H](NC(=O)/C=C/Sc1ccccc1)C(=O)OCC [E, Diethyl N-[3-phenylthio-2(E)-propenoyl]-(R)-aspartate] | 20% | – | 20%
CCOC(=O)C[C@H](NC(=O)/C=C/Sc1ccccc1)C(=O)OCC [F, Diethyl N-[3-phenylthio-2(E)-propenoyl]-(S)-aspartate] | 20% | – | 20%
NC(=O)[C@@H]1CCCN1C(=O)/C=C/S(=O)(=O)c1ccccc1 [G, 1-[3-Phenylsulfonyl-2(E)-propenoyl]-2(S)-carbamoylpyrrolidine] | 30% | 4.5 mg/kg | –
CCOC(=O)CNC(=O)/C=C/S(=O)(=O)c1ccccc1 [H, Ethyl N-[3-phenylsulfonyl-2(E)-propenoyl]glycinate] | 30% | 1.6 mg/kg | –
CCOC(=O)[C@H](C)NC(=O)/C=C/S(=O)(=O)c1ccccc1 [I, Ethyl N-[3-phenylsulfonyl-2(E)-propenoyl]-(S)alanate] | 20% | 2.2 mg/kg | –
COC(=O)[C@@H]1CSCN1C(=O)/C=C\Sc1ccccc1 [J, Methyl N-[3-phenylthio-2(Z)-propenoyl]-(R)-thiazolidine-4-carboxylate] | – | – | 20%
O=C(O)C[C@@H](NC(=O)/C=C/S(=O)(=O)c1ccccc1)C(=O)O [K, Magnesium N-[3-phenylsulfonyl-2(E)-propenoyl]-(R)aspartate.4H2 O] | 30% | – | –
